In patent US9462808B2, “Pesticidal compositions” (Syngenta Participants AG, priority 2010, dated 2016) one finds mortality and melting point data, which are given here for 28 molecules.

The test system of data set [1] is Rhopalosiphum padi (cereal aphid). Put plainly: Activity against Rhopalosiphum padi (cereal aphid) on wheat, spray with safener cloquintocet, 6 days after application (Example B1). The data set is classed as in vivo. The settings on record: 144 h. As for the experimental part:
One replicate consisted of 4 wheat plants per pot. […] 9 days after seeding all wheat plants (10replicates) were sprayed with respective test solutions. […] 6 days after application aphid mortality and phytotoxicity were evaluated. […] Additionally the average plant height per replicate was measured.

Data set [2] deals with Nilaparvata lugens (brown plant hopper, BPH). The experiment in a line: Activity against Nilaparvata lugens (brown plant hopper, BPH) on rice, spray with safeners, 7 d after application (Example B2). The note with it: 168 h. The data set is classed as in vivo. As for the experimental part: Eight replicates (pots with rice plants) were sprayed with respective test solutions. Test solutions contained the formulated test compound and the safener cloquintocet and N-(2-methoxybenzoyl)-4-[(methylaminocarbonyl)amino]-benzenesulfonamide at different ratios. 4 pots were infested with plant hopper nymphs right after application. 7d after application BPH mortality and plant safety were evaluated. […] Assessment on plant safety was done by measuring the average plant height per replicate.

The structures appear in SMILES notation. Read-outs that look alike come from different tables or passages of the source.

Consider `CCOC(=O)OC1=C(c2c(C)cc(Cl)cc2C)C(=O)N(C)C12CCN(OC)CC2` [Compound P1.29], for which the mortality at 25 ppm in data set [1] (read-out: Efficacy (% mortality) against cereal aphids (Rhopalosiphum padi), test compound 25 ppm, adjuvant Mero 0.1% v/v, ratio AI:safener cell blank (no safener), wheat, 6 days after application, Abbott's formula) is 97%; in data set [1] (read-out: Efficacy (% mortality) against cereal aphids (Rhopalosiphum padi), test compound 25 ppm, adjuvant Mero 0.1% v/v, safener cloquintocet, ratio AI:safener 1:1, wheat, 6 days after application, Abbott's formula), 96.6%; in data set [1] (read-out: Efficacy (% mortality) against cereal aphids (Rhopalosiphum padi), test compound 25 ppm, adjuvant Mero 0.1% v/v, safener cloquintocet, ratio AI:safener 1:2, wheat, 6 days after application, Abbott's formula), 96.9%; in data set [2] (read-out: % mortality, corr., 25 ppm AI, Cloquintocet, ratio AI:safener 1.9:1, 7 d after application), 100%; in data set [2] (read-out: % mortality, corr., 25 ppm AI, Safener 2, ratio AI:safener 1.9:1, 7 d after application), 95%. The mortality at 12.5 ppm came out at 98% in data set [2] (read-out: % mortality, corr., 12.5 ppm AI, Cloquintocet, ratio AI:safener 0.9:1, 7 d after application) and 65% in data set [2] (read-out: % mortality, corr., 12.5 ppm AI, Safener 2, ratio AI:safener 0.9:1, 7 d after application). In addition, the mortality at 50 ppm in data set [2] (read-out: % mortality, corr., 50 ppm AI, Safener 2, ratio AI:safener 1.25:1, 7 d after application) was 100%. For the same molecule, the mortality at 100 ppm in data set [2] (read-out: % mortality, corr., 100 ppm AI, Safener 2, ratio AI:safener 7.5:1, 7 d after application) came to 100%. Moreover, the mortality at 200 ppm in data set [2] (read-out: % mortality, corr., 200 ppm AI, Safener 2, ratio AI:safener 15:1, 7 d after application) is 100%.

As a reminder, the melting point is the temperature of the solid-liquid transition. In turn, `COCCON1C(=O)C(c2cc(Br)c(C)cc2C)=C(O)C12CCN(OC)CC2` [Compound P2ii.73] showed a melting point of 63 to 64 °C. `CCOC(=O)OC1=C(c2c(C)cc(Cl)cc2C)C(=O)N(OC)C12CCN(OC)CC2` [Compound P1ii.114] gave a melting point of 122 to 125 °C. As to `CCN1C(=O)C(c2c(C)cc(C)cc2C)=C(O)C12CCN(OC)CC2` [Compound P2.11], the melting point was 218 to 221 °C. On the same count and under the same terms, to `CON1CCC2(CC1)C(O)=C(c1c(C)cc(C)cc1C)C(=O)N2CC1CC1` [Compound P2.8, 1-Cyclopropylmethyl-4-hydroxy-8-methoxy-3-(2,4,6-trimethyl-phenyl)-1,8-diaza-spiro[4.5]dec-3-en-2-one] belongs 223 to 225 °C; to `CON1CCC2(CC1)C(O)=C(c1c(C)cc(Cl)cc1C)C(=O)N2OC` [Compound P2ii.102], 88 to 92 °C. The same measure, in the same setting: under `COCON1C(=O)C(c2cc(C)ccc2C)=C(OC(=O)CC(C)(C)C)C12CCN(OC)CC2` [Compound P1ii.5] stands 93 to 95 °C; under `CON1CCC2(CC1)C(O)=C(c1c(C)cc(Cl)cc1C)C(=O)N2OC1CCCO1` (stereo not shown) [Compound P2ii.105], 137 to 139 °C. Still for that read-out and setting: under `COCCON1C(=O)C(c2cc(Br)c(F)cc2C)=C(O)C12CCN(OC)CC2` [Compound P2ii.87] stands 71 to 74 °C.

On to `CCOC(=O)OC1=C(c2cc(C)c(C)cc2Cl)C(=O)N(C)C12CCN(OC)CC2` [Compound P1.22], for which the melting point is 149 to 150 °C. Consider `CON1CCC2(CC1)C(O)=C(c1c(C)cc(C)cc1C)C(=O)N2OCC1CCCCC1` [Compound P2ii.96], for which the melting point was in the range of 169 to 172 °C.

`COCON1C(=O)C(c2cc(C)ccc2C)=C(OC)C12CCN(OC)CC2` [Compound P1ii.31] gave a melting point of 91 to 93 °C. The same measure, in the same setting: under `COCON1C(=O)C(c2cc(Br)c(F)cc2C)=C(O)C12CCN(OC)CC2` [Compound P2ii.89] stands 64 to 67 °C; under `CCOC(=O)OC1=C(c2c(C)cc(C)cc2C)C(=O)N(CC)C12CCN(OC)CC2` [Compound P1.8], 101 to 103 °C; under `CON1CCC2(CC1)C(O)=C(c1cc(C)ccc1C)C(=O)N2C` [Compound P2.1], 121 to 123 °C. In turn, `CON1CCC2(CC1)C(O)=C(c1cc(C)c(C)cc1C)C(=O)N2C` [Compound P2.25] showed a melting point of 183 to 186 °C.

`CON1CCC2(CC1)C(O)=C(c1cc(C)c(C)cc1Br)C(=O)N2C` [Compound P2.23]: the melting point fell in the range of 191 to 193 °C.

In turn, `COCON1C(=O)C(c2c(C)cc(Cl)cc2C)=C(O)C12CCN(OC)CC2` [Compound P2ii.104] showed a melting point of 176 to 178 °C. The same measure, in the same setting: under `CON1CCC2(CC1)C(O)=C(c1cc(Br)c(C)cc1C)C(=O)N2C` [Compound P2.28] stands 182 to 183 °C. The same measure, in the same setting: under `CON1CCC2(CC1)C(O)=C(c1cc(Br)c(C)cc1C)C(=O)N2OC` [Compound P2ii.75] stands 86 to 87 °C; under `CCOC(=O)OC1=C(c2c(F)ccc(C)c2Cl)C(=O)N(OCOC)C12CCN(OC)CC2` [Compound P1ii.61], 116 to 119 °C; under `COCCON1C(=O)C(c2c(C)cc(Cl)cc2C)=C(O)C12CCN(OC)CC2` [Compound P2ii.101], 161 to 164 °C. On the same count and under the same terms, to `CCOC(=O)OC1=C(c2cc(C)ccc2C)C(=O)N(C)C12CCN(OC)CC2` [Compound P1.1] belongs 96 to 110 °C; to `CCOC(=O)OC1=C(c2cc(C)c(C)cc2Br)C(=O)N(C)C12CCN(OC)CC2` [Compound P1.20], 158 to 159 °C. With `COCON1C(=O)C(c2c(F)ccc(C)c2Cl)=C(O)C12CCN(OC)CC2` [Compound P2ii.60], the melting point was in the range of 155 to 158 °C. Consider `COCON1C(=O)C(c2c(C)cc(-c3ccc(Cl)cc3)cc2C)=C(O)C12CCN(OC)CC2` [Compound P2ii.15, 3-(4′-Chloro-3,5-dimethyl-biphenyl-4-yl)-4-hydroxy-8-methoxy-1-methoxymethoxy-1,8-diaza-spiro[4.5]dec-3-en-2-one], for which the melting point was 128 °C (dec.). In turn, `CON1CCC2(CC1)C(O)=C(c1c(C)cc(C)cc1C)C(=O)N2OCCOC1CCCCO1` (stereo not shown) [Compound P2ii.22] returned a melting point of 135 to 137 °C. Same read-out and setting: under `CON1CCC2(CC1)C(O)=C(c1cc(C)c(C)cc1Cl)C(=O)N2C` [Compound P2.26, 3-(2-Chloro-4,5-dimethyl-phenyl)-4-hydroxy-8-methoxy-1-methyl-1,8-diaza-spiro[4.5]dec-3-en-2-one] stands 191 to 192 °C.
